± gives the expanded uncertainty stated by the source.
Settings: Liquid, Vibrating tube method

CCCCCCCCO [octan-1-ol]
mass density (278.15 K, 100 kPa): 835.2 ± 2.4 kg/m3 | mass density (278.15 K, 1000 kPa): 835.7 ± 2.4 kg/m3 | mass density (278.15 K, 5000 kPa): 838 ± 2.4 kg/m3 | mass density (278.15 K, 10000 kPa): 841 ± 2.4 kg/m3 | mass density (278.15 K, 15000 kPa): 843.7 ± 2.4 kg/m3 | mass density (278.15 K, 20000 kPa): 846.4 ± 2.4 kg/m3 | mass density (278.15 K, 25000 kPa): 849 ± 2.4 kg/m3 | mass density (278.15 K, 30000 kPa): 851.5 ± 2.4 kg/m3 | mass density (278.15 K, 35000 kPa): 854 ± 2.4 kg/m3 | mass density (278.15 K, 40000 kPa): 856.4 ± 2.4 kg/m3 | mass density (278.15 K, 45000 kPa): 858.8 ± 2.4 kg/m3 | mass density (278.15 K, 50000 kPa): 861.1 ± 2.4 kg/m3 | mass density (278.15 K, 55000 kPa): 863.4 ± 2.4 kg/m3 | mass density (278.15 K, 60000 kPa): 865.5 ± 2.4 kg/m3 | mass density (288.15 K, 100 kPa): 828.4 ± 2.4 kg/m3 | mass density (288.15 K, 1000 kPa): 829 ± 2.4 kg/m3 | mass density (288.15 K, 5000 kPa): 831.5 ± 2.4 kg/m3 | mass density (288.15 K, 10000 kPa): 834.4 ± 2.4 kg/m3 | mass density (288.15 K, 15000 kPa): 837.3 ± 2.4 kg/m3 | mass density (288.15 K, 20000 kPa): 840.1 ± 2.4 kg/m3 | mass density (288.15 K, 25000 kPa): 842.8 ± 2.4 kg/m3 | mass density (288.15 K, 30000 kPa): 845.5 ± 2.4 kg/m3 | mass density (288.15 K, 35000 kPa): 848 ± 2.4 kg/m3 | mass density (288.15 K, 40000 kPa): 850.5 ± 2.4 kg/m3 | mass density (288.15 K, 45000 kPa): 852.9 ± 2.4 kg/m3 | mass density (288.15 K, 50000 kPa): 855.3 ± 2.4 kg/m3 | mass density (288.15 K, 55000 kPa): 857.6 ± 2.4 kg/m3 | mass density (288.15 K, 60000 kPa): 859.8 ± 2.4 kg/m3 | mass density (298.15 K, 100 kPa): 821.4 ± 2.4 kg/m3 | mass density (298.15 K, 1000 kPa): 822 ± 2.4 kg/m3 | mass density (298.15 K, 5000 kPa): 824.6 ± 2.4 kg/m3 | mass density (298.15 K, 10000 kPa): 827.7 ± 2.4 kg/m3 | mass density (298.15 K, 15000 kPa): 830.7 ± 2.4 kg/m3 | mass density (298.15 K, 20000 kPa): 833.6 ± 2.4 kg/m3 | mass density (298.15 K, 25000 kPa): 836.4 ± 2.4 kg/m3 | mass density (298.15 K, 30000 kPa): 839.1 ± 2.4 kg/m3 | mass density (298.15 K, 35000 kPa): 841.8 ± 2.4 kg/m3 | mass density (298.15 K, 40000 kPa): 844.4 ± 2.4 kg/m3 | mass density (298.15 K, 45000 kPa): 846.9 ± 2.4 kg/m3 | mass density (298.15 K, 50000 kPa): 849.4 ± 2.4 kg/m3 | mass density (298.15 K, 55000 kPa): 851.7 ± 2.4 kg/m3 | mass density (298.15 K, 60000 kPa): 853.9 ± 2.4 kg/m3 | mass density (308.15 K, 100 kPa): 814.5 ± 2.4 kg/m3 | mass density (308.15 K, 1000 kPa): 815.1 ± 2.4 kg/m3 | mass density (308.15 K, 5000 kPa): 817.8 ± 2.4 kg/m3 | mass density (308.15 K, 10000 kPa): 821.1 ± 2.4 kg/m3 | mass density (308.15 K, 15000 kPa): 824.2 ± 2.4 kg/m3 | mass density (308.15 K, 20000 kPa): 827.2 ± 2.4 kg/m3 | mass density (308.15 K, 25000 kPa): 830.1 ± 2.4 kg/m3 | mass density (308.15 K, 30000 kPa): 833 ± 2.4 kg/m3 | mass density (308.15 K, 35000 kPa): 835.7 ± 2.4 kg/m3 | mass density (308.15 K, 40000 kPa): 838.4 ± 2.4 kg/m3 | mass density (308.15 K, 45000 kPa): 841 ± 2.4 kg/m3 | mass density (308.15 K, 50000 kPa): 843.5 ± 2.4 kg/m3 | mass density (308.15 K, 55000 kPa): 846 ± 2.4 kg/m3 | mass density (308.15 K, 60000 kPa): 848.2 ± 2.4 kg/m3 | mass density (318.15 K, 100 kPa): 807.5 ± 2.4 kg/m3 | mass density (318.15 K, 1000 kPa): 808.1 ± 2.4 kg/m3 | mass density (318.15 K, 5000 kPa): 811 ± 2.4 kg/m3 | mass density (318.15 K, 10000 kPa): 814.4 ± 2.4 kg/m3 | mass density (318.15 K, 15000 kPa): 817.7 ± 2.4 kg/m3 | mass density (318.15 K, 20000 kPa): 820.8 ± 2.4 kg/m3 | mass density (318.15 K, 25000 kPa): 823.8 ± 2.4 kg/m3 | mass density (318.15 K, 30000 kPa): 826.8 ± 2.4 kg/m3 | mass density (318.15 K, 35000 kPa): 829.6 ± 2.4 kg/m3 | mass density (318.15 K, 40000 kPa): 832.4 ± 2.4 kg/m3 | mass density (318.15 K, 45000 kPa): 835.1 ± 2.4 kg/m3 | mass density (318.15 K, 50000 kPa): 837.7 ± 2.4 kg/m3 | mass density (318.15 K, 55000 kPa): 840.3 ± 2.4 kg/m3 | mass density (318.15 K, 60000 kPa): 842.6 ± 2.4 kg/m3 | mass density (328.15 K, 100 kPa): 800.4 ± 2.4 kg/m3 | mass density (328.15 K, 1000 kPa): 801.1 ± 2.4 kg/m3 | mass density (328.15 K, 5000 kPa): 804.1 ± 2.4 kg/m3 | mass density (328.15 K, 10000 kPa): 807.7 ± 2.4 kg/m3 | mass density (328.15 K, 15000 kPa): 811.1 ± 2.4 kg/m3 | mass density (328.15 K, 20000 kPa): 814.4 ± 2.4 kg/m3 | mass density (328.15 K, 25000 kPa): 817.5 ± 2.4 kg/m3 | mass density (328.15 K, 30000 kPa): 820.5 ± 2.4 kg/m3 | mass density (328.15 K, 35000 kPa): 823.5 ± 2.4 kg/m3 | mass density (328.15 K, 40000 kPa): 826.4 ± 2.4 kg/m3 | mass density (328.15 K, 45000 kPa): 829.1 ± 2.4 kg/m3 | mass density (328.15 K, 50000 kPa): 831.9 ± 2.4 kg/m3 | mass density (328.15 K, 55000 kPa): 834.5 ± 2.4 kg/m3 | mass density (328.15 K, 60000 kPa): 836.9 ± 2.4 kg/m3 | mass density (338.15 K, 100 kPa): 793.2 ± 2.4 kg/m3 | mass density (338.15 K, 1000 kPa): 793.9 ± 2.4 kg/m3 | mass density (338.15 K, 5000 kPa): 796.9 ± 2.4 kg/m3 | mass density (338.15 K, 10000 kPa): 800.8 ± 2.4 kg/m3 | mass density (338.15 K, 15000 kPa): 804.4 ± 2.4 kg/m3 | mass density (338.15 K, 20000 kPa): 807.8 ± 2.4 kg/m3 | mass density (338.15 K, 25000 kPa): 811.1 ± 2.4 kg/m3 | mass density (338.15 K, 30000 kPa): 814.2 ± 2.4 kg/m3 | mass density (338.15 K, 35000 kPa): 817.3 ± 2.4 kg/m3 | mass density (338.15 K, 40000 kPa): 820.3 ± 2.4 kg/m3 | mass density (338.15 K, 45000 kPa): 823.1 ± 2.4 kg/m3 | mass density (338.15 K, 50000 kPa): 825.9 ± 2.4 kg/m3 | mass density (338.15 K, 55000 kPa): 828.7 ± 2.4 kg/m3 | mass density (338.15 K, 60000 kPa): 831.2 ± 2.4 kg/m3 | mass density (348.15 K, 100 kPa): 785.6 ± 2.4 kg/m3 | mass density (348.15 K, 1000 kPa): 786.4 ± 2.4 kg/m3 | mass density (348.15 K, 5000 kPa): 789.8 ± 2.4 kg/m3 | mass density (348.15 K, 10000 kPa): 793.6 ± 2.4 kg/m3 | mass density (348.15 K, 15000 kPa): 797.4 ± 2.4 kg/m3 | mass density (348.15 K, 20000 kPa): 801 ± 2.4 kg/m3 | mass density (348.15 K, 25000 kPa): 804.5 ± 2.4 kg/m3 | mass density (348.15 K, 30000 kPa): 807.8 ± 2.4 kg/m3 | mass density (348.15 K, 35000 kPa): 810.9 ± 2.4 kg/m3 | mass density (348.15 K, 40000 kPa): 814 ± 2.4 kg/m3 | mass density (348.15 K, 45000 kPa): 817 ± 2.4 kg/m3 | mass density (348.15 K, 50000 kPa): 819.9 ± 2.4 kg/m3 | mass density (348.15 K, 55000 kPa): 822.7 ± 2.4 kg/m3 | mass density (348.15 K, 60000 kPa): 825.5 ± 2.5 kg/m3 | mass density (358.15 K, 100 kPa): 778 ± 2.4 kg/m3 | mass density (358.15 K, 1000 kPa): 778.8 ± 2.4 kg/m3 | mass density (358.15 K, 5000 kPa): 782.3 ± 2.4 kg/m3 | mass density (358.15 K, 10000 kPa): 786.4 ± 2.4 kg/m3 | mass density (358.15 K, 15000 kPa): 790.4 ± 2.4 kg/m3 | mass density (358.15 K, 20000 kPa): 794.1 ± 2.4 kg/m3 | mass density (358.15 K, 25000 kPa): 797.7 ± 2.4 kg/m3 | mass density (358.15 K, 30000 kPa): 801.1 ± 2.4 kg/m3 | mass density (358.15 K, 35000 kPa): 804.5 ± 2.4 kg/m3 | mass density (358.15 K, 40000 kPa): 807.7 ± 2.4 kg/m3 | mass density (358.15 K, 45000 kPa): 810.8 ± 2.4 kg/m3 | mass density (358.15 K, 50000 kPa): 813.6 ± 2.4 kg/m3 | mass density (358.15 K, 55000 kPa): 816.7 ± 2.4 kg/m3 | mass density (358.15 K, 60000 kPa): 819.6 ± 2.5 kg/m3
